Experiment [1] has as its target CDK5/p25 (Homo sapiens, UniProt Q00535). Nature of the experiment: CDK5/p25 kinase assay (histone H1, 15 μM ATP). The settings on record: 30° C., 30 min. It is filed as biochemical. As to the method:
(§1) Blank values were subtracted and activities calculated as pmoles of phosphate incorporated during a […] incubation. The activities were expressed in % of the maximal activity, i.e. in the absence of inhibitors. Controls were performed with appropriate dilutions of dimethylsulfoxide. Phosphorylation of the substrate was assessed by the P81 phosphocellulose assay.
CDK5/p25 was reconstituted by mixing equal amounts of recombinant human CDK5 and p25 expressed in E. coli as GST (Glutathione-S-transferase) fusion proteins and purified by affinity chromatography on glutathione-agarose (p25 is a truncated version of p35, the 35 kDa CDK5 activator). Its activity was assayed with histone H1 in buffer C as described for CDK1/cyclin B.

Experiment [2] concerns the target CDK1/cyclin B. Nature of the experiment: CDK1/cyclin B kinase assay (histone H1, 15 μM ATP). It is filed as biochemical, starfish (Marthasterias glacialis). The note with it: 30° C., 30 min.
The subject of experiment [3] is Per2 promoter (PPer2) activity, Rat-1 fibroblasts. Nature of the experiment: Luminescence assay of circadian rhythmicity, Rat-1 fibroblasts PPer2::Fluc. It is filed as cell-based. The settings on record: 10 μM, left continuously, monitored 4 days. On the procedure:
FIGS. 3a and 3b: the alteration of the circadian period in mammalian fibroblasts by the indirubin derivatives. Rat-1 fibroblasts stably transfected with a PPer2::Fluc reporter construct show a robust circadian rhythm of luminescence as a gauge of clock-controlled Per2 promoter (PPer2) activity. Cells were cultured up to 100% confluence and treated for 2 h with 0.1 μM dexamethasone to synchronize the oscillators. The medium was then replaced with assay medium supplemented with 0.1 mM luciferin and the luminescence rhythm was monitored for 4 days or more. Compounds were added to the culture dishes at 10 μM and left continuously. DMSO was used as a solvent control. Regression analyses were used to determine period and phase of the luminescence rhythms. 3a. Time-course of a typical luminescence rhythm recorded in control cells (◯) or cells treated with indirubin 15 (•). White arrows indicate the peaks of luminescence in control cells, black arrows indicate the peaks of luminescence in indirubin 15 treated cells. 3b. Period lengths calculated in cells exposed to various compounds. C, control; K, kenpaullone.
The cells were cultured in DMEM (11965-092, GIBCO/Invitrogen) supplemented with 5% FBS, 50 units/ml penicillin, and 50 μg/ml streptomycin in a 5% CO2 incubator at 37° C. […] The luminescence rhythm was monitored in a LumiCycle (Actimetrics Inc., Evanston, Ill., USA). […]

Experiment [4] concerns the target GSK-3α/β. Nature of the experiment: GSK-3α/β kinase assay (GS-1 substrate, 15 μM ATP). It is filed as biochemical, porcine. The note with it: 30° C., 30 min, read-out: GSK3 IC50. On the procedure:
as §1
GSK-3α/β was purified from porcine brain by affinity chromatography on immobilized axin^5. […] ATP (3,000 Ci/mmol; 10 mCi/ml) in a final volume of 30 μl. After 30 min. incubation at 30° C., 25 μl aliquots of supernatant were processed as described above.

The source of these data is patent US8829203B2, “3′,6-substituted indirubins and their biological applications” (Centre National de la Recherche Scientifique (CNRS), priority 2008, dated 2014).

Sequence of CDK5/p25 (Q00535 whole entry): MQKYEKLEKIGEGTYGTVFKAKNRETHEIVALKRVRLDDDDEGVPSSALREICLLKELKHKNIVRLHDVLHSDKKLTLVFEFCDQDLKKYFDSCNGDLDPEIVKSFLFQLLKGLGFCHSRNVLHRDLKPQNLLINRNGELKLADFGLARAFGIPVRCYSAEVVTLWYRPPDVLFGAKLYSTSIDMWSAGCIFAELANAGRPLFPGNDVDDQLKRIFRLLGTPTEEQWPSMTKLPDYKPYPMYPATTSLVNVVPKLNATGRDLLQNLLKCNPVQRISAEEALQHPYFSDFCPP
Sequence of CDK5/p25 (Q15078 99-307 partner limits assumed): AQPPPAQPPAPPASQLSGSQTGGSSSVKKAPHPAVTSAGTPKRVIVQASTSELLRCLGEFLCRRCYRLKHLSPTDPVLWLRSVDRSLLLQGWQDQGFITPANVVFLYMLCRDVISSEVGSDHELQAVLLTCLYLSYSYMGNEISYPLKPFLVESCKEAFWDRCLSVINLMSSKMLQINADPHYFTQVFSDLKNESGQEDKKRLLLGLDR

For the compound `O=C1Nc2cc(Br)ccc2/C1=C1/Nc2ccccc2/C1=N\OCCN1CCN(CCOCCO)CC1` [Cpd 15, (2′Z-3′E)-6-Bromoindirubin-3′-[O-(2-{4-[2-(2-hydroxyethoxy)-ethyl]piperazin-1-yl}ethyl)oxime]], the IC50 in experiment [1] is 310 nM; in experiment [2], 900 nM; in experiment [4] it was 14 nM. Further, the “Circadian period length of luminescence rhythm” value in experiment [3] is “gradual shortening of the period length”.
